# Patent US3993749A, “Rapamycin and process of preparation” (Ayerst McKenna and Harrison Ltd., priority 1975, dated 1976)
# Legend:
# LD50 in mice = settings: mouse, in vivo
# C. albicans ATCC 11651 = experiment: protection studies in mice infected with C. albicans; type: in vivo
# Source text: In protection studies, mice were infected by intravenous injection of C. albicans ATCC 11651. […] At this dose 50% of the mice were protected.
# C. stellatoidea = experiment: minimum inhibitory concentration of rapamycin; type: cell-based; settings: Candida albicans
# Source text: (§1) The antifungal activity of this compound is demonstrable in standard tests used for this purpose, for example, in the tests described in "Antiseptics, Disinfectants, Fungicides and Sterilization", G. F. Reddish, Ed., 2nd ed., Lea and Febiger, Philadelphia, 1957 or by D. C. Grove and W. A. Randall in "Assay Methods of Antibiotics", Med. Encycl. Inc., New York 1955.
# (§2) h. the minimum inhibitory concentration of rapamycin against various microorganism is listed below: […]
# T. mentagrophytes = experiment: minimum inhibitory concentration of rapamycin; type: cell-based; settings: Trichophyton mentagrophytes, read-out: minimum inhibitory concentration
# Source text: as §1, §2
# C. tropicalis = experiment: minimum inhibitory concentration of rapamycin; type: cell-based; settings: Candida tropicalis
# Source text: as §1, §2
# C. lipolytica = experiment: minimum inhibitory concentration of rapamycin; type: cell-based; settings: Yarrowia lipolytica
# Source text: as §1, §2
# C. morrera = experiment: minimum inhibitory concentration of rapamycin; type: cell-based
# Source text: as §1, §2
# C. parapsilosis = experiment: minimum inhibitory concentration of rapamycin; type: cell-based; settings: Lodderomyces parapsilosis
# Source text: as §1, §2
# [1] = test system: Candida albicans (5 strains); experiment: minimum inhibitory concentration of rapamycin; type: cell-based; settings: against Candida albicans
# Source text: as §1, §2
# C. catenulata = experiment: minimum inhibitory concentration of rapamycin; type: cell-based
# Source text: as §1, §2
# C. intermedia = experiment: minimum inhibitory concentration of rapamycin; type: cell-based; settings: Sungouiella intermedia
# Source text: as §1, §2
# C. pseudtropicalis = experiment: minimum inhibitory concentration of rapamycin; type: cell-based; settings: read-out: minimum inhibitory concentration
# Source text: as §1, §2
# solubility = type: physicochemical
# [2] = irritation, intradermal injection into a rabbit's ear; type: in vivo; settings: 1% suspension (0.2 ml) in water containing […] polysorbate 80, intradermal
# Method: (§3) A 1% suspension (0.2 ml) of rapamycin in water containing 1.5% polysorbate 80 (Tween 80), when injected intradermally into a rabbit's ear caused no irritation. Similarly, two drops of a 0.5% suspension applied to a rabbit's eye caused no irritation.
# M. gypseum = experiment: minimum inhibitory concentration of rapamycin; type: cell-based, Microsporum gypseum; settings: Nannizzia gypsea
# Source text: as §1, §2
# [3] = irritation, drops applied to a rabbit's eye; type: in vivo; settings: two drops of a 0.5% suspension
# Method: as §3
# C. albicans = settings: prior art; cited from earlier work
# [4] = prior art, route not given; cited from earlier work
# fungi = settings: prior art; cited from earlier work
# bacteria = settings: prior art; cited from earlier work
# Candida strains = settings: prior art; cited from earlier work
# gram positive organisms = settings: prior art; cited from earlier work
# tumor = settings: prior art; cited from earlier work
molecule,measurement,setting,value
"CO[C@H]1C[C@@H]2CC[C@@H](C)[C@@](O)(O2)C(=O)C(=O)N2CCCC[C@H]2C(=O)O[C@H]([C@H](C)C[C@@H]2CC[C@@H](O)[C@H](OC)C2)CC(=O)[C@H](C)/C=C(\C)[C@@H](O)[C@@H](OC)C(=O)[C@H](C)C[C@H](C)/C=C/C=C/C=C/1C [Rapamycin, rapamycin]",LD50,LD50 in mice; ip,597 ± 28.1 mg/kg
same,LD50,LD50 in mice; po,> 2500 mg/kg
same,mice survived,C. albicans ATCC 11651; 10 mg/kg orally,4 out of 10
same,mice protected,"C. albicans ATCC 11651; 10 mg/kg s.c. at 1, 4 and 24 hours after i.v. infection",50%
same,protection,C. albicans ATCC 11651; 25 mg/kg orally,complete protection
same,protection,C. albicans ATCC 11651; 25 mg/kg s.c.,complete protection
same,MIC,C. stellatoidea,< 0.1 µg/mL
same,MIC,T. mentagrophytes,> 1000 µg/mL
same,MIC,C. tropicalis,0.1 µg/mL
same,MIC,C. lipolytica,2.5 µg/mL
same,MIC,C. morrera,< 0.1 µg/mL
same,MIC,C. parapsilosis,< 0.1 µg/mL
same,inhibitory activity,[1],especially pronounced
same,MIC,C. catenulata,< 0.1 µg/mL
same,MIC,C. intermedia,< 0.1 µg/mL
same,MIC,C. pseudtropicalis,> 5 µg/mL
same,solubility,"solubility; in ether, chloroform, acetone, methanol and dimethylformamide",soluble
same,solubility,solubility; in hexane and petroleum ether,very sparingly soluble
same,solubility,solubility; in water,substantially insoluble
same,irritation,[2],no irritation
same,MIC,M. gypseum,12.5 µg/mL
same,irritation,[3],no irritation
Mycotrienin,MIC against C. albicans,C. albicans,5 µg/mL
same,LD50 in mice,[4],15 mg/kg
same,antifungal activity,fungi,low antifungal activity
Proticin,antibacterial activity,bacteria,antibacterial
same,antifungal activity,fungi,without any antifungal activity
Resistaphylin,antibacterial activity,bacteria,antibacterial
same,antifungal activity,fungi,without any antifungal activity
Trienine,activity against Candida strains,Candida strains,only marginal activity
same,activity against gram positive organisms,gram positive organisms,marked activity
same,antitumor activity,tumor,antitumor activity
